# Reference: patent publication US20090012152A1, “Use of Tetramic Acid Derivatives for Controlling Insects from the Genus of the Plane Lice (Sternorrhyncha)” (Bayer CropScience Aktiengesellschaft, priority 2005, published 2009)
# Key:
# Format in all cases: in vivo
# Pulvinaria aethiopicus = assay: Example 10: mandarin trees treated against Pulvinaria aethiopicus; details: 45 days after last of two treatments, on fruits, % a.i.: mineral oil 0.251 + pyriproxifen 0.003, I-9 0.0096, I-2 0.0144
# Method: In three replications, about 6-year-old mandarin trees of the cultivar “Naartje” are treated against Pulvinaria aethiopicus. Two applications are carried out at an interval of 32 days as irradication treatment using a knapsack operated with pressurized air. Here, the active compounds Example (I-9) (240 SC) and Example (I-2) (240 SC) are tested against a commercial tank mix of a mineral oil (835 EC) which is commercially available in South Africa and customarily used in this country and pyriproxifen (100 EC) at the stated amounts. The application rate is 8.3 l of water/tree.
# Evaluation is carried out 45 days after the last treatment by rating the kill in percent on the fruits.
# Myzus persicae = assay: Example 47: peach trees infested with Myzus persicae; details: live animals on shoots, Henderson and Tilten, g a.i./ha/m crown height: imidacloprid 25, I-4 24; for Effect (%) 7 d: 7 d after application; for Effect (%) 14 d: 14 d after application; for Effect (%) 21 d: 21 d after application
# Method: In three replications, under practical conditions, about 18-year-old peach trees of the cultivar “Vivian” infested with Myzus persicae are treated with Example (I-4) (240 SC) in a tank mix with 0.2% a.i. of rapeseed oil methyl ester (500 EW) in comparison to the commercial standard imidacloprid 200 SL, at the stated application rates. The application is carried out using a motor-operated knapsack sprayer. The application rate is 1000 l of water/ha.
# Evaluation is carried out 7, 14 and 21 days after the application by counting the live animals on the shoots. The efficacy is then calculated by calculating the effect on the population in percent according to Henderson and Tilten.
# Orthezia praelonga = assay: Example 25: orange trees treated against Orthezia praelonga; details: population on leaves, % a.i.: methidathion 0.05, I-4 0.0144, I-9 0.0144
# Method: In two replications, two about 7-year-old orange trees of the cultivar “Pera Rio” are treated against Orthezia praelonga. Here, the active compounds Example (I-4) (240 SC) and Example (I-9) (240 SC), in a tank mix with 0.1% a.i. of Renex, are tested against the commercial standard Methidathion (400 EC), at the stated application rates. The application is carried out using a knapsack sprayer operated with pressurized air. Evaluation is carried out 6 and 16 days after the treatment by rating the kill of the population on the leaves.
# Phorodon humuli = assay: Example 44: hop plants treated against hop aphid; details: on leaves, % a.i.: imidacloprid 0.0053, I-9 0.0036, I-4 0.0084; for Kill (%) 6 d: 6 d after treatment; for Kill (%) 46 d: 46 d after treatment
# Method: In two replications, about 4-year-old hop plants of the cultivar “Spalter” are treated against the hop aphid Phorodon humuli. The application is carried out using a knapsack sprayer operated with pressurized air. Here, the active compounds Example (I-9) (240 SC) and Example (I-4) (240 SC), in a tank mix with 0.1% a.i. of rapeseed oil methyl ester (500 EW), and the standard imidacloprid are applied at the stated application rates. The application rate is 1200 l of water/ha.
# The first evaluation is carried out 6 days and the last evaluation 46 days after the treatment by rating the kill of the animals on the leaves.
# Macrosiphum euphorbiae = assay: Example 55: strawberry plants treated against Macrosiphum euphorbiae; details: nymphs on strawberry plants, g a.i./ha: Calypso 120, I-4 75
# Method: In four replications, plots of a size of about 3 m^2 with 3-week-old strawberry plants are treated against Macrosiphum euphorbiae and Rhodobium porosum. The application is carried out using a knapsack sprayer operated with pressurized air. Here, the active compound Example (I-4) (150 OD) and the commercial standard Calypso (480 SC) are tested at the stated application rates. Here, the standard is sprayed as a tank mix with 0.03% of Motto (adjuvant). The application rate is 500 l of water/ha.
# Evaluation is carried out 7 and 14 days after the second treatment by rating the kill of the nymphs on the plants.
# [1] = system: Quadraspidiotus perniciosus; assay: Example 21: almond tree treated against Quadraspidiotus perniciosus; details: on branches, per metre crown height: Dursban 2240 g/ha, I-4 110 g/ha
# Method: In four replications, an about 20-year-old almond tree of the cultivar “Non-Pareil” is treated against Quadraspidiotus perniciosus. The application is carried out using a high-pressure sprayer. Here, the active compound Example (I-4) (240 SC) in a tank mix with 0.125% a.i. of methylated seed oil (1000 EC) and the commercial standard Lorsban (480 EC) are tested at the stated application rates. The amount of spray liquor is 935 l/ha.
# Evaluation is carried out 21, 42 and 63 days after the treatment by rating the kill of the animals on the branches.
# Bemisia argentifolii = assay: Example 36: aubergine plants (Ryoma) treated against Bemisia argentifolii; details: nymphs on leaves, % a.i.: pymetrozine 0.0125, I-4 0.072, I-8 0.06
# Method: In three replications, in each case four aubergine plants of the cultivar “Ryoma” are treated against Bemisia argentifolii. The application is carried out using a motor-operated knapsack sprayer. Here, the active compounds Example (I-4) and Example (I-8), in a tank mix with 0.2% a.i. of rapeseed oil methyl ester (500 EW), and the commercial standard pymetrozine (25 WP) are tested at the stated application rates. The application rate is 3200 l of water/ha.
# Evaluation is carried out 13, 20 and 27 days after the treatment by rating the kill of the nymphs on the leaves.
# Aulacorthum solani = assay: Example 46: head lettuce treated against Aulacorthum solani; details: nymphs on plants, g a.i./ha: endosulfan 1120, I-4 48
# Method: In four replications, plots of a size of about 33 m^2 with head lettuce of the cultivar “PIC 714” are treated against Aulacorthum solani, Macrosiphum euphorbiae and Myzus persicae. The application is carried out using a tractor sprayer. Here, the active compound Example (I-4) (240 SC), in a tank mix with 0.2% a.i. of rapeseed oil methyl ester (500 EW), is tested against the commercial standard endosulfan (360 EC), at the stated application rates. The application rate is 187 l of water/ha. Two treatments are carried out, at an interval of 22 days.
# Evaluation is carried out 8, 22, 30 and 40 days after the first treatment by rating the kill of the nymphs on the plants.
SMILES,Kill (%) (Pulvinaria aethiopicus),Effect (%) 7 d (Myzus persicae),Effect (%) 14 d (Myzus persicae),Effect (%) 21 d (Myzus persicae),Kill (%) 6 d (Orthezia praelonga; 6 d after treatment),Kill (%) 16 d (Orthezia praelonga; 16 d after treatment),Kill (%) 6 d (Phorodon humuli),Kill (%) 46 d (Phorodon humuli),Macrosiphum euphorbiae Kill (%) 7 d (Macrosiphum euphorbiae; 7 d after second treatment),Macrosiphum euphorbiae Kill (%) 14 d (Macrosiphum euphorbiae; 14 d after second treatment),Kill (%) 21 d ([1]; 21 d after treatment),Kill (%) 42 d ([1]; 42 d after treatment),Kill (%) 63 d ([1]; 63 d after treatment),Kill (%) 13 d (Bemisia argentifolii; 13 d after treatment),Kill (%) 20 d (Bemisia argentifolii; 20 d after treatment),Kill (%) 27 d (Bemisia argentifolii; 27 d after treatment),Kill (%) 8 d (Aulacorthum solani; 8 d after first of two treatments),Kill (%) 22 d (Aulacorthum solani; 22 d after first of two treatments),Kill (%) 30 d (Aulacorthum solani; 30 d after first of two treatments),Kill (%) 40 d (Aulacorthum solani; 40 d after first of two treatments)
CCOC(=O)OC1=C(c2cc(C)ccc2Br)C(=O)NC12CCC(OC)CC2 (stereo not shown) [Example (I-2)],72%,,,,,,,,,,,,,,,,,,,
CCOC(=O)OC1=C(c2cc(C)ccc2C)C(=O)NC12CCC(OC)CC2 (stereo not shown) [Example (I-4)],,94.0%,98.9%,93.3%,94%,76%,95%,98.7%,62.2%,94%,84.9%,90%,94.6%,99.6%,100%,97%,100%,99%,79%,87%
"O=[N+]([O-])NC1=NCCN1Cc1ccc(Cl)nc1 [imidacloprid, reference compound]",,97.6%,95.8%,78.1%,,,99%,97.6%,,,,,,,,,,,,
